The numbers were not newly measured in article PMC3680490, “Fragment-Based Screening Maps Inhibitor Interactions in the ATP-Binding Site of Checkpoint Kinase 2” (PLoS ONE, 2013), which cites them from elsewhere.

Structures are written as SMILES.

Data set [1] relates to ovarian cancer cell lines. The following applies: cited from earlier work.
The conditions of data set [2]: cited from earlier work.
A further data set concerns cancer cell lines. Also noted: method as in PMID 19741151. The note with it: cited from earlier work.

With `COc1cc2nc(-c3cc(F)ccc3O)nc(N[C@@H]3CNC[C@H]3C(C)(C)O)c2cc1OC` [CCT241533], in data set [1], the “Potentiation in combination with genotoxic agents” value is “no such effects have been observed”. Moreover, the “Potentiation of the cytotoxicity of PARP inhibitors such as AG14447 and olaparib” value in data set [2] was “potentiates the cytotoxicity”.
Take `C/C(=N\NC(=N)N)c1ccc(NC(=O)c2cc3cccc([N+](=O)[O-])c3[nH]2)cc1` [PV1019, 7-nitro-1H-indole-2-carboxylic acid {4-[1-(guanidinohydrazone)-ethyl]-phenyl}-amide]: the Antiproliferative effect entry in the data set on cancer cell lines is recorded as “antiproliferative effect”. For the same molecule, in data set [1] (ovarian cancer cell lines), the “Potentiation of the cytotoxicity of topotecan and campothecan” value is reported as “potentiation of the cytotoxicity”.
